Assay results reported in patent US20250057820A1, “AUTOTAXIN (ATX) INHIBITOR FOR THE TREATMENT OF PANCREATIC CANCER” (priority 2021, published 2025).

What was measured:
mPA6115-luc tumour cells = assay: orthotopic mPA6115-luc mouse model of pancreatic cancer; type: in vivo; conditions: 10 mg/kg BID oral gavage, female C57BL/6 mice, FIG. 2
Experimental: This model is constituted by the implantation of mPA6115-luc cells originating from a spontaneous developed donor tumour in KPC mice into the pancreas of female wildtype C57BL/6 recipient mice.
Each mouse was inoculated into the subcapsular region of the pancreas with mPA6115-luc tumour cells (1×10^6) in 50 uL PBS with Matrigel (1:1). The date of tumour cell inoculation was denoted as day 0.
The randomization started 4 days after tumour cell inoculation based on the total flux (p/s, minimum flux>1E^6). 10 mice per group were assigned to treatment by BID oral gavage with vehicle (1% methylcellulose) or Compound 1 (10 mg/kg in 1% methylcellulose). Tumour growth and metastasis were imaged twice per week by bioluminescent imaging.

PANC-1 tumour cells [1] = assay: subcutaneous PANC-1 xenograft mouse model of pancreatic cancer; type: in vivo; conditions: BALB/c Nude mice, subcutaneous PANC-1, FIG. 3
Experimental: The therapeutic efficacy of Compound 1 was evaluated in the subcutaneous PANC-1 mouse model of pancreatic cancer.
BALB/c Nude mice were inoculated subcutaneously in the right front flank region with PANC-1 tumour cells (5×10^6) in 0.1 ml of PBS. The date of tumour cell inoculation was denoted as day 0. The randomization started when the mean tumour size>100 mm^3. 10 mice were enrolled per study group. Tumour growth and body weights were measured twice per week.

PANC-1 tumour cells [2] = conditions: for tumour growth inhibition: BALB/C nude mice, tumour weight at day 42
Experimental: The therapeutic efficacy of Compound 1 with or without gemcitabine was evaluated in the orthotopic PANC-1 mouse model of pancreatic cancer. This model is constituted by the implantation of PANC-1 tumor cells into the pancreas […] in BALB/C nude mice.
Each mouse was inoculated into the subcapsular region of the pancreas with PANC-1 tumour cells (3×10^6) in 50 uL PBS with Matrigel (1:1). The date of tumour cell inoculation was denoted as day 0. Randomization started 10 days after tumour cell inoculation based on body weight. 10 mice per group were assigned to treatment by oral gavage with vehicle (1% methylcellulose, BID), gemcitabine (25 mg/kg, Q4D), Compound 1 (10 mg/kg, BID), or Compound 1 (10 mg/kg, BID) and gemcitabine (25 mg/kg, Q4D). Tumor sizes were measured by weight after termination at day 42.

RC416 tumour cells = assay: orthotopic RC416 mouse model of pancreatic cancer (survival); type: in vivo; conditions: Compound 1 10 mg/kg BID p.o., galunisertib 50 mg/kg BID p.o., gemcitabine 75 mg/kg QW i.p.; max 28 days treatment; FIG. 5
Description: This model is constituted by the implantation of RC416 cells originating from a spontaneous developed donor tumour in KPC mice into the pancreas of female wildtype C57BL/6 recipient mice. The pathology and tumour microenvironment in this model closely resemble human pancreatic cancer and is characterized by high circulating ATX and TGF-β.
The day of tumour cell inoculation was denoted as day 0. Randomization started 7 days after tumor cell inoculation, based on body weight. 5 mice per group were assigned to treatment, with vehicle (1% methylcellulose, BID p.o.), Compound 1 (10 mg/kg, BID p.o.), galunisertib (50 mg/kg, BID p.o.), gemcitabine (75 mg/kg, QW i.p.), or the combinations of Compound 1 plus gemcitabine, Compound 1 plus galunisertib and gemcitabine, and galunisertib plus gemcitabine, Mice were treated for a maximum of 28 days and anti-tumour activity was measured by survival.

pancreatic cancer = pancreatic cancer patients, standard treatment; cited from earlier work
[3] = Compound 1 10 mg/kg BID, gemcitabine 25 mg/kg Q4D

SMILES | tumour outgrowth based on total bioluminescence (mPA6115-luc tumour cells) | tumour outgrowth (PANC-1 tumour cells [1]) | tumour growth inhibition (PANC-1 tumour cells [2]; [3]) [%] | mice died or sacrificed for reaching humane endpoints (mortality) (PANC-1 tumour cells [2]; 10 mice per group, Compound 1 10 mg/kg BID, gemcitabine 25 mg/kg Q4D) [mice] | Number of Mice on Day 42 (PANC-1 tumour cells [2]; BALB/C nude, mouse, in vivo, 42 day) | Pancreas Size (mg) on Day 42 (PANC-1 tumour cells [2]; Day 42) | survival (RC416 tumour cells) | average median overall survival (pancreatic cancer) [months] | response rate (pancreatic cancer)
C[C@H](NC(=O)CCc1nc2cccnc2n1Cc1ccc(OC(F)(F)F)cc1)c1ccc(Cl)cc1 [Compound 1, N—[(S)-1-(4-chloro-phenyl)-ethyl]-3-[3-(4-trifluoromethoxy-benzyl)-3H-imidazo[4,5-b]pyridin-2-yl]-propionamide] | significantly reduced tumour outgrowth | reduced tumour outgrowth | 5 | – | – | – | – | – | –
Nc1ccn([C@@H]2O[C@H](CO)[C@@H](O)C2(F)F)c(=O)n1 [gemcitabine] | – | – | 41 | 5 | 5 | 549 + 44 mg | limited survival benefit | 6 | 5-10%
